Here are results for five compounds from patent publication US20190100534A1, “Cephem Compounds with Latent Reactive Groups” (Gladius Pharmaceuticals, Inc., priority 2017, published 2019).

The structures appear in SMILES notation.

Common to all, as to experiment: MIC determination, isogenic E. coli strains
What all share (assay type): cell-based

For assay [1], the system named is Isogenic E. coli J58 strain carrying DHA-1. The conditions noted are these: for MIC: Escherichia coli, 18 h, read-out: Mimimum Inhibitory Concentrations, DHA-1; for Mimimum Inhibitory Concentrations, DHA-1: isogenic E. coli strain, CAMH broth, 20 μM Apo-Transferrin, 37° C., 18 hours. The method, then: (§1) Sterile technique was used throughout these experiments. Suspensions of organisms were removed from storage (−80° C.) and partially thawed. Partially thawed organisms (1 μL) were inoculated into 3 mL sterile LB Broth in a sterile culture tube and capped, then cultured at 37° C. with shaking for 4-5 hours until the optical density at 600 nm (OD600) was greater than 0.1 on a single beam spectrophotometer.
(§2) The concentration of organisms was adjusted to 0.08-0.1 OD600 (0.5 McFarland units) by dilution with sterile cation-adjusted Meuller-Hinton (CAMH) broth. The suspensions were used within 30 minutes of preparation.
(§3) A stock solution was made of each test compound by measuring 6.4 mg of the compound on an analytical balance and dissolving it in DMSO (1 mL) to get a transparent solution. The solutions were stored at −20° C. and thawed prior to use.
(§4) Sterile CAMH broth (200 μL) containing 20 μM Apo-Transferrin was pipetted into the first row of 8 columns of a sterile, round-bottomed, transparent, 96-well microplate using an 8-channel pipette equipped with sterile tips. One hundred μL was pipetted into the wells of the remaining 11 rows.
(§5) With an 8-channel pipette equipped with sterile tips, 100 μL of the first row solution was transferred to the second row and mixed. The process was repeated for the second to third rows and continued through row 11. One hundred μL from row 11 was removed and discarded so that all 12 rows contained 100 μL. Row 12 contained no compound and rows 1-11 contained 64, 32, 16, 8, 4, 2, 1, 0.5, 0.25, 0.125, […] of a given compound.
(§6) Inoculant suspensions (0.5 μL) were added to the 12 wells of each column. The plates were then covered and incubated at 37° C. overnight for 18 hours.
(§7) For each organism the MIC was determined by identifying the transparent well with the lowest test compound concentration.
(§8) The gene sequence for each beta-lactamase enzyme was synthesized and inserted into the pBC-SK(+) plasmid by GenScript, a commercial service. E. coli J53 was transformed with each plasmid via electroporation and resistant transformants were selected on agar plates containing 50 micrograms/mL ampicillin. The selected transformants were stored at −80 degrees C. in 20% glycerol.

The next assay relates to E. coli J53 Alone. Conditions: for MIC: Escherichia coli, J53ALONE, 18 h, read-out: Mimimum Inhibitory Concentrations, J53 Alone; for Mimimum Inhibitory Concentrations, J53 Alone: CAMH broth, 20 μM Apo-Transferrin, 37° C., 18 hours. The method, then:
as §1, §2, §3, §4, §5, §6, §7, §8

The test system of assay [2] is Isogenic E. coli J58 strain carrying KPC-3. Conditions: for MIC: Escherichia coli, 18 h, read-out: Mimimum Inhibitory Concentrations, KPC-3; for Mimimum Inhibitory Concentrations, KPC-3: isogenic E. coli strain, CAMH broth, 20 μM Apo-Transferrin, 37° C., 18 hours. The method, then: as §1, §2, §3, §4, §5, §6, §7
(§9) KPC-2 and KPC-3 (Class A, Group 2f, carbapenemases);
as §8

Assay [3] relates to Isogenic E. coli J58 strain carrying KPC-2. The conditions noted are these: for MIC: Escherichia coli, 18 h, read-out: Mimimum Inhibitory Concentrations, KPC-2; for Mimimum Inhibitory Concentrations, KPC-2: isogenic E. coli strain, CAMH broth, 20 μM Apo-Transferrin, 37° C., 18 hours. As to the method: as §1, §2, §3, §4, §5, §6, §7, §9, §8
Assay [4] has as its system Isogenic E. coli J58 strain carrying VIM-2. The conditions noted are these: for MIC: Escherichia coli, 18 h, read-out: Mimimum Inhibitory Concentrations, VIM-2; for Mimimum Inhibitory Concentrations, VIM-2: isogenic E. coli strain, CAMH broth, 20 μM Apo-Transferrin, 37° C., 18 hours. As to the method: as §1, §2, §3, §4, §5, §6, §7
VIM-2 (Group 3a carbapenemase, metallo-beta-lactamase); and
as §8

Assay [5] has as its system Isogenic E. coli J58 strain carrying IMP-1. The conditions noted are these: for MIC: Escherichia coli, 18 h, read-out: Mimimum Inhibitory Concentrations, IMP-1; for Mimimum Inhibitory Concentrations, IMP-1: isogenic E. coli strain, CAMH broth, 20 μM Apo-Transferrin, 37° C., 18 hours. The method, then:
as §1, §2, §3, §4, §5, §6, §7
IMP-1 (Group 3a carbapenemase, metallo-beta-Lactamase).
as §8

Assay [6] concerns Isogenic E. coli J58 strain carrying SHV-1. Conditions: for MIC: Escherichia coli, 18 h, read-out: Mimimum Inhibitory Concentrations, SHV-1; for Mimimum Inhibitory Concentrations, SHV-1: isogenic E. coli strain, CAMH broth, 20 μM Apo-Transferrin, 37° C., 18 hours. As to the method: as §1, §2, §3, §4, §5, §6, §7
SHV-1 (Class A, Group 2b beta-lactamase, hydrolyzes penicillins and early cephalosporins);
as §8

In assay [7] the test system is Isogenic E. coli J58 strain carrying CTX-M-15. Conditions: for MIC: Escherichia coli, 18 h, read-out: Mimimum Inhibitory Concentrations, CTX-M-15; for Mimimum Inhibitory Concentrations, CTX-M-15: isogenic E. coli strain, CAMH broth, 20 μM Apo-Transferrin, 37° C., 18 hours. The method, then: as §1, §2, §3, §4, §5, §6, §7
(§10) CTX-M-14 and CTX-M-15 (Class A, Group 2be beta-lactamases, hydrolyzes extended spectrum cephalosporins and monobactams);
as §8

The test system of assay [8] is Isogenic E. coli J58 strain carrying CTX-M-14. Conditions: for MIC: Escherichia coli, 18 h, read-out: Mimimum Inhibitory Concentrations, CTX-M-14; for Mimimum Inhibitory Concentrations, CTX-M-14: isogenic E. coli strain, CAMH broth, 20 μM Apo-Transferrin, 37° C., 18 hours. As to the method: as §1, §2, §3, §4, §5, §6, §7, §10, §8
Assay [9] relates to Isogenic E. coli J58 strain carrying NDM-1. Conditions: for MIC: Escherichia coli, 18 h, read-out: Mimimum Inhibitory Concentrations, NDM-1; for Mimimum Inhibitory Concentrations, NDM-1: isogenic E. coli strain, CAMH broth, 20 μM Apo-Transferrin, 37° C., 18 hours. As to the method: as §1, §2, §3, §4, §5, §6, §7
NDM-1 (Group 3a carbapenemase, broad spectrum divalent Zn^++ metallo-Beta-Lactamase);
as §8

Assay [10] deals with Isogenic E. coli J58 strain carrying TEM-26. The conditions noted are these: for MIC: Escherichia coli, 18 h, read-out: Mimimum Inhibitory Concentrations, TEM-26; for Mimimum Inhibitory Concentrations, TEM-26: isogenic E. coli strain, CAMH broth, 20 μM Apo-Transferrin, 37° C., 18 hours. As to the method: as §1, §2, §3, §4, §5, §6, §7
TEM-26 (Group 2be beta-lactamase, hydrolyzes extended spectrum cephalosporins and monobactams), [25];
as §8

As for `CC(C)(O/N=C(\C(=O)N[C@@H]1C(=O)N2C(C(=O)O)=C(C=Cc3ccc(C[N+]4(C)CCc5c(ccc(O)c5O)C4)cc3)CS[C@H]12)c1csc(N)n1)C(=O)O` (mixture of isomers) [Compound 441, 2-(4-((E/Z)-2-((6R,7R)-7-((Z)-2-(2-aminothiazol-4-yl)-2-(((2-carboxypropan-2-yl)oxy)imino)acetamido)-2-carboxy-8-oxo-5-thia-1-azabicyclo[4.2.0]oct-2-en-3-yl)vinyl)benzyl)-5,6-dihydroxy-2-methyl-1,2,3,4-tetrahydroisoquinolin-2-ium], the MIC in [1] was found to be 0.5 µg/mL; in the assay with E. coli J53 Alone, 0.25 µg/mL; in assay [2], 1 µg/mL; in assay [3] it was 4 µg/mL; in [4] it was 0.25 µg/mL; in [5], 1 µg/mL. The MIC in assay [6] was 1 µg/mL; in [7], 0.5 µg/mL; in assay [8] it was 1 µg/mL; in [9] it was over 64 µg/mL; in assay [10] it was 1 µg/mL. Besides, in the assay with E. coli J53 Alone (Table 4-2), the “Mimimum Inhibitory Concentrations, J53 Alone” value is 0.25 microgram/mL.

In the case of `CC(C)(O/N=C(\C(=O)N[C@@H]1C(=O)N2C(C(=O)O)=C(C=Cc3ccc(C[n+]4ccc(O)c(O)c4)cc3)CS[C@H]12)c1csc(N)n1)C(=O)O` (mixture of isomers) [Compound 443, 1-(4-((E/Z)-2-((6R,7R)-7-((Z)-2-(2-aminothiazol-4-yl)-2-(((2-carboxypropan-2-yl)oxy)imino)acetamido)-2-carboxy-8-oxo-5-thia-1-azabicyclo[4.2.0]oct-2-en-3-yl)vinyl)benzyl)-3,4-dihydroxypyridin-1-ium], the “Mimimum Inhibitory Concentrations, DHA-1” value in [1] was 1 microgram/mL. Moreover, the “Mimimum Inhibitory Concentrations, J53 Alone” value in the assay with E. coli J53 Alone (Table 4-1) and in the assay on E. coli J53 Alone (Table 4-2) was 0.13 microgram/mL throughout. Also, the “Mimimum Inhibitory Concentrations, KPC-3” value in [2] is 4 microgram/mL. In addition, the “Mimimum Inhibitory Concentrations, KPC-2” value in [3] is reported as 8 microgram/mL. Also, in assay [4], the “Mimimum Inhibitory Concentrations, VIM-2” value was determined as 0.25 microgram/mL. Moreover, the “Mimimum Inhibitory Concentrations, IMP-1” value in assay [5] is given as 4 microgram/mL. Besides, the “Mimimum Inhibitory Concentrations, SHV-1” value in assay [6] is reported as 1 microgram/mL. For the same compound, the “Mimimum Inhibitory Concentrations, CTX-M-15” value in assay [7] is reported as 1 microgram/mL. The “Mimimum Inhibitory Concentrations, CTX-M-14” value in assay [8] was 0.25 microgram/mL. In addition, the “Mimimum Inhibitory Concentrations, NDM-1” value in assay [9] was over 64 microgram/mL. For the same compound, in [10], the “Mimimum Inhibitory Concentrations, TEM-26” value was 2 microgram/mL.

Turning to `CC(C)(O/N=C(\C(=O)N[C@@H]1C(=O)N2C(C(=O)O)=C(C=Cc3ccc(C[N+]4(C5CCC5)CCc5ccc(O)c(O)c5C4)cc3)CS[C@H]12)c1csc(N)n1)C(=O)O` (mixture of isomers) [Compound 444, 2-(4-((E/Z)-2-((6R,7R)-7-((Z)-2-(2-aminothiazol-4-yl)-2-(((2-carboxypropan-2-yl)oxy)imino)acetamido)-2-carboxy-8-oxo-5-thia-1-azabicyclo[4.2.0]oct-2-en-3-yl)vinyl)benzyl)-2-cyclobutyl-7,8-dihydroxy-1,2,3,4-tetrahydroisoquinolin-2-ium], in [1], the “Mimimum Inhibitory Concentrations, DHA-1” value turned out to be 1 microgram/mL. For the same compound, the “Mimimum Inhibitory Concentrations, J53 Alone” value in the assay with E. coli J53 Alone (Table 4-1) and with E. coli J53 Alone (Table 4-2) was 0.5 microgram/mL in each case. In assay [2], the “Mimimum Inhibitory Concentrations, KPC-3” value was 2 microgram/mL. Moreover, the “Mimimum Inhibitory Concentrations, KPC-2” value in [3] is 8 microgram/mL. Also, the “Mimimum Inhibitory Concentrations, VIM-2” value in assay [4] worked out at 0.5 microgram/mL. In addition, the “Mimimum Inhibitory Concentrations, IMP-1” value in assay [5] stood at 0.5 microgram/mL. In addition, the “Mimimum Inhibitory Concentrations, SHV-1” value in assay [6] is 1 microgram/mL. The “Mimimum Inhibitory Concentrations, CTX-M-15” value in assay [7] stood at 1 microgram/mL. For the same compound, in assay [8], the “Mimimum Inhibitory Concentrations, CTX-M-14” value worked out at 0.25 microgram/mL. Moreover, in [9], the “Mimimum Inhibitory Concentrations, NDM-1” value is listed as 32 microgram/mL. In addition, the “MICs for an E. coli strain carrying the gene for NDM-1, in words” value in assay [9] (review of Tables 4-1 and 4-2) is reported as “lower MICS compared to other compounds tested”. In addition, in assay [10], the “Mimimum Inhibitory Concentrations, TEM-26” value amounted to 0.25 microgram/mL.

Take `CC(C)(O/N=C(\C(=O)N[C@@H]1C(=O)N2C(C(=O)O)=C(C=Cc3ccc(C[N+]4(C)CCc5cc(O)c(O)cc5C4)cc3[N+](=O)[O-])CS[C@H]12)c1csc(N)n1)C(=O)O` (mixture of isomers) [Compound 445, 2-(4-((E/Z)-2-((6R,7R)-7-((Z)-2-(2-aminothiazol-4-yl)-2-(((2-carboxypropan-2-yl)oxy)imino)acetamido)-2-carboxy-8-oxo-5-thia-1-azabicyclo[4.2.0]oct-2-en-3-yl)vinyl)-3-nitrobenzyl)-6,7-dihydroxy-2-methyl-1,2,3,4-tetrahydroisoquinolin-2-ium]: the MIC is 1 µg/mL in assay [1]; 1 µg/mL with E. coli J53 Alone; 16 µg/mL in assay [2]; 64 µg/mL in [3]; 0.25 µg/mL in assay [4]; 1 µg/mL in assay [5]. For the same compound, the MIC is 1 µg/mL in assay [6]; 4 µg/mL in assay [7]; 4 µg/mL in assay [8]; over 64 µg/mL in assay [9]; 1 µg/mL in assay [10]. In the assay with E. coli J53 Alone (Table 4-2), the “Mimimum Inhibitory Concentrations, J53 Alone” value came to 1 microgram/mL.

Consider `CC(C)(O/N=C(\C(=O)N[C@@H]1C(=O)N2C(C(=O)O)=C(/C=C/c3ccc(C[n+]4ccn(-c5ccc(O)c(O)c5)c4)cc3)CS[C@H]12)c1csc(N)n1)C(=O)O` [Compound 414, 3-(4-((E)-2-((6R,7R)-7-((Z)-2-(2-aminothiazol-4-yl)-2-(((2-carboxypropan-2-yl)oxy)imino)acetamido)-2-carboxy-8-oxo-5-thia-1-azabicyclo[4.2.0]oct-2-en-3-yl)vinyl)benzyl)-1-(3,4-dihydroxyphenyl)-1H-imidazol-3-ium], for which the MIC in assay [1] was 0.5 µg/mL; in the assay on E. coli J53 Alone it was 0.25 µg/mL; in [2], 4 µg/mL; in assay [3], 8 µg/mL; in [4], 1 µg/mL; in assay [5], 8 µg/mL. The MIC is 1 µg/mL in assay [6]; 1 µg/mL in assay [7]; 2 µg/mL in [8]; over 64 µg/mL in assay [9]; 1 µg/mL in assay [10]. For the same compound, the “Mimimum Inhibitory Concentrations, J53 Alone” value in the assay on E. coli J53 Alone (Table 4-2) turned out to be 0.25 microgram/mL.
